Assay results taken from publication PMC4917279 (Journal of Medicinal Chemistry, 2016).

Key:
Assay in all cases: KINOMEscan
Type in all cases: binding
Conditions in all cases: read-out: %Ctrl @ 1000 nM
[1] = target: T1, ABL1(Q252H)-nonphosphorylated (Homo sapiens, UniProt P00519, Q252H)
T1 construct: purchased DiscoveRx (KINOMEscan service)

[2] = target: T2, ABL1(T315I)-nonphosphorylated (Homo sapiens, UniProt P00519, T315I)
T2 construct: purchased DiscoveRx (KINOMEscan service)

AKT2 = target: T3, AKT2 (Homo sapiens, UniProt P31751)
T3 construct: purchased DiscoveRx KINOMEscan
T3 sequence (P31751 whole entry): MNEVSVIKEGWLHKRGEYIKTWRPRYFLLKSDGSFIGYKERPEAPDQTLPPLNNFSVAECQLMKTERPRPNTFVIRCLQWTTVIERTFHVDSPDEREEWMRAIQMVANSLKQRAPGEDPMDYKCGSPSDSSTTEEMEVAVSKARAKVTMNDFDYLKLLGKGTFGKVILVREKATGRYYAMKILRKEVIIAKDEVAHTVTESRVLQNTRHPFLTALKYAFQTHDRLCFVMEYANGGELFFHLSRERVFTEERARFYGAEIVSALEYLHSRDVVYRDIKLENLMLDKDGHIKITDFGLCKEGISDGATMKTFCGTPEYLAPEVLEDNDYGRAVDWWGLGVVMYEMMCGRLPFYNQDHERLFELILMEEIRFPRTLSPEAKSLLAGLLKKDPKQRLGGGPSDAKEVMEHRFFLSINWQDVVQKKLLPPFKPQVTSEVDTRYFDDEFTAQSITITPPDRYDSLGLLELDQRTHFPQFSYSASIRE

ALK(C1156Y) = target: T4, ALK(C1156Y) (Homo sapiens, UniProt Q9UM73, C1156Y)
T4 construct: purchased DiscoveRx KINOMEscan

AMPK-alpha2 = target: T5, AMPK-alpha2 (Homo sapiens, UniProt P54646)
T5 construct: purchased DiscoveRx KINOMEscan

CAMK1G = target: T6, CAMK1G (Homo sapiens, UniProt Q96NX5)
T6 construct: purchased DiscoveRx KINOMEscan

CDK7 = target: T7, CDK7 (Homo sapiens, UniProt P50613)
T7 construct: purchased DiscoveRx KINOMEscan

CDKL2 = target: T8, CDKL2 (Homo sapiens, UniProt Q92772)
T8 construct: purchased DiscoveRx KINOMEscan
T8 sequence (Q92772 whole entry): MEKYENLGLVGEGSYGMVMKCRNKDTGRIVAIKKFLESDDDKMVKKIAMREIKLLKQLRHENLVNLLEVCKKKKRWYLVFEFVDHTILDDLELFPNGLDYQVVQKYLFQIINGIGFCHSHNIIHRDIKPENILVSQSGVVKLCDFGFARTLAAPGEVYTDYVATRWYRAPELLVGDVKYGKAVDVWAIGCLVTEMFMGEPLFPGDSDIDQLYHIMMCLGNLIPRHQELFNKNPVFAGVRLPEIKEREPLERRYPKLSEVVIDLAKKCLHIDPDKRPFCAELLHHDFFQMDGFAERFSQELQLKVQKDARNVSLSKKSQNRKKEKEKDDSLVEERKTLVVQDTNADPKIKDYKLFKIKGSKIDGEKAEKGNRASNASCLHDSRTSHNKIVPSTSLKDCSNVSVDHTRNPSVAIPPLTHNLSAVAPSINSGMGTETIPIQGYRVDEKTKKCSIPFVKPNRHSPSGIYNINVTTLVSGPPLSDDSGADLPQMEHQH

CSNK1A1L = target: T9, CSNK1A1L (Homo sapiens, UniProt Q8N752)
T9 construct: purchased DiscoveRx KINOMEscan

DRAK2 = target: T10, DRAK2 (Homo sapiens, UniProt O94768)
T10 construct: purchased DiscoveRx KINOMEscan

EPHA6 = target: T11, EPHA6 (Homo sapiens, UniProt Q9UF33)
T11 construct: purchased DiscoveRx KINOMEscan

ERK8 = target: T12, ERK8 (Homo sapiens, UniProt Q8TD08)
T12 construct: purchased DiscoveRx KINOMEscan

ERN1 = target: T13, ERN1 (Homo sapiens, UniProt O75460)
T13 construct: purchased DiscoveRx KINOMEscan

FLT3 = target: T14, FLT3 (Homo sapiens, UniProt P36888)
T14 construct: purchased DiscoveRx KINOMEscan

FLT3(D835H) = target: T15, FLT3(D835H) (Homo sapiens, UniProt P36888, D835H)
T15 construct: purchased DiscoveRx KINOMEscan

FLT3(R834Q) = target: T16, FLT3(R834Q) (Homo sapiens, UniProt P36888, R834Q)
T16 construct: purchased DiscoveRx KINOMEscan

GAK = target: T17, GAK (Homo sapiens, UniProt O14976)
T17 construct: purchased DiscoveRx KINOMEscan

HIPK3 = target: T18, HIPK3 (Homo sapiens, UniProt Q9H422)
T18 construct: purchased DiscoveRx KINOMEscan
T18 sequence (Q9H422 whole entry): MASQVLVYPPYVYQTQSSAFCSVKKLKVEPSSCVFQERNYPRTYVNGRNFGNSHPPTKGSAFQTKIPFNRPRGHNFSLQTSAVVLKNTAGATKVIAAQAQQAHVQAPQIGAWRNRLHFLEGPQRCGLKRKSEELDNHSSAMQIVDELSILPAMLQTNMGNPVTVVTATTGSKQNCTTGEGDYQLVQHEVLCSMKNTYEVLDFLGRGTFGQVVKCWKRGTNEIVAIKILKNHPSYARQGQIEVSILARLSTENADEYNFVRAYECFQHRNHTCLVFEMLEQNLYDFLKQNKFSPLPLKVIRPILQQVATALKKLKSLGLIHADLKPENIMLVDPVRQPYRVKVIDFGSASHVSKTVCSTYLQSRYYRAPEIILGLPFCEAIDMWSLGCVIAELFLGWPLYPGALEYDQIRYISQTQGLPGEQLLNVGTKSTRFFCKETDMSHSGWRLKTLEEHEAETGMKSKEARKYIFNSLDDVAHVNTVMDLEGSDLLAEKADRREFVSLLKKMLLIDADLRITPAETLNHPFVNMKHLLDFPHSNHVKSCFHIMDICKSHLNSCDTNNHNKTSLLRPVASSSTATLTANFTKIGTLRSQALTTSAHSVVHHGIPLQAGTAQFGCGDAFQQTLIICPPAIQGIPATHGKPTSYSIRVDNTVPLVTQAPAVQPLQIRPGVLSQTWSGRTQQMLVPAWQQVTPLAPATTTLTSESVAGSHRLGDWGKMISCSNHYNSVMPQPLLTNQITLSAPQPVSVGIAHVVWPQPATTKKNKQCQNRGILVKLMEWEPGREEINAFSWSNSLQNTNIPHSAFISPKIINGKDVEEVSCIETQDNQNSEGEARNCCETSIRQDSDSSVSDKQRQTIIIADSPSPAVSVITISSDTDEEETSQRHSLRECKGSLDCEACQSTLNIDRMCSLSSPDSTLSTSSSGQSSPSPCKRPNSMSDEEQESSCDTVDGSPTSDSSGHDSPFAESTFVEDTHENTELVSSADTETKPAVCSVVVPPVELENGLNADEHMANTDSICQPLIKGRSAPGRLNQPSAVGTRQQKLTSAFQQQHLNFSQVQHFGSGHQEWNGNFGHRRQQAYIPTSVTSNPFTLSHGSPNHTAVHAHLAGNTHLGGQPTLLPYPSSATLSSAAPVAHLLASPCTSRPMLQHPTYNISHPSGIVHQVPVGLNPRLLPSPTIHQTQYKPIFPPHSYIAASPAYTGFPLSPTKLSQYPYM

[3] = target: T19, JAK1(JH1domain-catalytic) (Homo sapiens, UniProt P23458)
T19 construct: JAK1(JH1domain-catalytic); purchased DiscoveRx KINOMEscan

LATS1 = target: T20, LATS1 (Homo sapiens, UniProt O95835)
T20 construct: purchased DiscoveRx KINOMEscan

LTK = target: T21, LTK (Homo sapiens, UniProt P29376)
T21 construct: purchased DiscoveRx KINOMEscan

MST3 = target: T22, MST3 (Homo sapiens, UniProt Q9Y6E0)
T22 construct: purchased DiscoveRx KINOMEscan

NEK11 = target: T23, NEK11 (Homo sapiens, UniProt Q8NG66)
T23 construct: purchased DiscoveRx KINOMEscan
T23 sequence (Q8NG66 whole entry): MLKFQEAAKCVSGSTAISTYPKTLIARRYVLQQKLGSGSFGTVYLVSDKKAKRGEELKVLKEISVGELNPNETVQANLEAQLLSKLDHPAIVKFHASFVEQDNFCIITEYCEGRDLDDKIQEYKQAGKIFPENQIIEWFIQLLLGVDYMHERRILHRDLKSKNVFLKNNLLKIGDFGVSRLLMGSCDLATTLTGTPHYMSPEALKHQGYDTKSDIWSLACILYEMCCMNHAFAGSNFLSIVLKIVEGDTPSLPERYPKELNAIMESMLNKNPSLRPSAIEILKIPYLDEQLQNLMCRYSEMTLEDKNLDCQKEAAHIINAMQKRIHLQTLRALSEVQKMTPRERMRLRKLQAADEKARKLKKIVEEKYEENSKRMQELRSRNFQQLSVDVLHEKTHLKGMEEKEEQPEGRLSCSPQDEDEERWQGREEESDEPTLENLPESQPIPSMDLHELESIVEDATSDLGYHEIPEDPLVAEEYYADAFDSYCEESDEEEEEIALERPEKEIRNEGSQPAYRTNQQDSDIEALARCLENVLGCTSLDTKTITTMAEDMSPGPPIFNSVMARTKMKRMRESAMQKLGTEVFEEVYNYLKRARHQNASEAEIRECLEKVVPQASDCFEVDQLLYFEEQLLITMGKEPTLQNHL

OSR1 = target: T24, OSR1 (Homo sapiens, UniProt O95747)
T24 construct: purchased DiscoveRx KINOMEscan

PAK3 = target: T25, PAK3 (Homo sapiens, UniProt O75914)
T25 construct: purchased DiscoveRx KINOMEscan

PIP5K1A = target: T26, PIP5K1A (Homo sapiens, UniProt Q99755)
T26 construct: purchased DiscoveRx KINOMEscan
T26 sequence (Q99755 whole entry): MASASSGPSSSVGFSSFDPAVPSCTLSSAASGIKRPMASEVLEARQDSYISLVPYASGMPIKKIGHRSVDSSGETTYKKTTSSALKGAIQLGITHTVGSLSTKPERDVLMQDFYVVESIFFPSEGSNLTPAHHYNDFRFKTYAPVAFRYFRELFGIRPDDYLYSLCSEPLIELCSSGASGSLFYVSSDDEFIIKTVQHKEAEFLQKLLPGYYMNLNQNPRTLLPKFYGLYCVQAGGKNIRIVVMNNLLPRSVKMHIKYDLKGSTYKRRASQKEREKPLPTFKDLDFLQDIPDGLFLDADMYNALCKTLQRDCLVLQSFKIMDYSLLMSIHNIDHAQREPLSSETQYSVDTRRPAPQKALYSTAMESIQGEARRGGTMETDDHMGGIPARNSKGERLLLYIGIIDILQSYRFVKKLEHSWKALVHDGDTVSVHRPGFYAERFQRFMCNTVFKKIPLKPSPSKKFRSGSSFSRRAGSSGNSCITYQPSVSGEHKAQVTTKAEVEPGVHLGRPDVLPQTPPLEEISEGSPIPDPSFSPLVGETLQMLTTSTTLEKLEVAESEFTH

PKN1 = target: T27, PKN1 (Homo sapiens, UniProt Q16512)
T27 construct: purchased DiscoveRx KINOMEscan

PLK2 = target: T28, PLK2 (Homo sapiens, UniProt Q9NYY3)
T28 construct: purchased DiscoveRx KINOMEscan

PRKX = target: T29, PRKX (Homo sapiens, UniProt P51817)
T29 construct: purchased DiscoveRx KINOMEscan

RET(V804M) = target: T30, RET(V804M) (Homo sapiens, UniProt P07949, V804M)
T30 construct: purchased DiscoveRx KINOMEscan

RIPK4 = target: T31, RIPK4 (Homo sapiens, UniProt P57078)
T31 construct: purchased DiscoveRx KINOMEscan

[4] = target: T32, RPS6KA4(Kin.Dom.1-N-terminal) (Homo sapiens, UniProt O75676)
T32 construct: RPS6KA4(Kin.Dom.1-N-terminal); purchased DiscoveRx KINOMEscan

[5] = target: T33, RSK3(Kin.Dom.2-C-terminal) (Homo sapiens, UniProt Q15349)
T33 construct: RSK3(Kin.Dom.2-C-terminal); purchased DiscoveRx KINOMEscan

SGK = target: T34, SGK (Homo sapiens, UniProt O00141)
T34 construct: purchased DiscoveRx KINOMEscan
T34 sequence (O00141 whole entry): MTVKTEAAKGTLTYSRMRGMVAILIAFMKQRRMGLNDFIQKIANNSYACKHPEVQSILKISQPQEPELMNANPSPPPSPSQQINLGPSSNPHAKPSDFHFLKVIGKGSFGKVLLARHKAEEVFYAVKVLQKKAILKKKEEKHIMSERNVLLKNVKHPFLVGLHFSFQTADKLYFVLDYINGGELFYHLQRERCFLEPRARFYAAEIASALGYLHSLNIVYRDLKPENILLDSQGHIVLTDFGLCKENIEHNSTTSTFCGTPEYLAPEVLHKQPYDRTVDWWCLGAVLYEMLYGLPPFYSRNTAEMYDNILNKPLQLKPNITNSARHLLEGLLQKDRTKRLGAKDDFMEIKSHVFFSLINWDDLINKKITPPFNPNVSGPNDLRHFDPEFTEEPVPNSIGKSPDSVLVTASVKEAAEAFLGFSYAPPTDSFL

STK16 = target: T35, STK16 (Homo sapiens, UniProt O75716)
T35 construct: purchased DiscoveRx KINOMEscan

TAOK2 = target: T36, TAOK2 (Homo sapiens, UniProt Q9UL54)
T36 construct: purchased DiscoveRx KINOMEscan

TNK1 = target: T37, TNK1 (Homo sapiens, UniProt Q13470)
T37 construct: purchased DiscoveRx KINOMEscan
T37 sequence (Q13470 whole entry): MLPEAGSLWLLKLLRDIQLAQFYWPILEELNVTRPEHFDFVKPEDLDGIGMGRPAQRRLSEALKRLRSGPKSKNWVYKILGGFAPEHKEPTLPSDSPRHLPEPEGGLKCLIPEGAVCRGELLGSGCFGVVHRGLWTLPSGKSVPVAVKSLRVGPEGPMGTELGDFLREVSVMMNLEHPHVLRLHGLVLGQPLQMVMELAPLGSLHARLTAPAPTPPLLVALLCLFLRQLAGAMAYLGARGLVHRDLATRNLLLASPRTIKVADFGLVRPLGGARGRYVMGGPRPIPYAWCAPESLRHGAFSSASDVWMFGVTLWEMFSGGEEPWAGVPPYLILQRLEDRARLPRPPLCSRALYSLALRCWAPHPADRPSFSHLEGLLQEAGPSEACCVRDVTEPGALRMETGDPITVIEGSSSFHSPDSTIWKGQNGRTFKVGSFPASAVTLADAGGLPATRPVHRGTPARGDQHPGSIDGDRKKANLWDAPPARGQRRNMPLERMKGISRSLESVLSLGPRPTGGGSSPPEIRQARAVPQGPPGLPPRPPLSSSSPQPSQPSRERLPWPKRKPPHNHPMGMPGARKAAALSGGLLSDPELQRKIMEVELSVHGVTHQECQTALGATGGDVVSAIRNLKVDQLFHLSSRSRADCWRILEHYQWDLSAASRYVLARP

TNNI3K = target: T38, TNNI3K (Homo sapiens, UniProt Q59H18)
T38 construct: purchased DiscoveRx KINOMEscan

ULK3 = target: T39, ULK3 (Homo sapiens, UniProt Q6PHR2)
T39 construct: purchased DiscoveRx KINOMEscan
T39 sequence (Q6PHR2 whole entry): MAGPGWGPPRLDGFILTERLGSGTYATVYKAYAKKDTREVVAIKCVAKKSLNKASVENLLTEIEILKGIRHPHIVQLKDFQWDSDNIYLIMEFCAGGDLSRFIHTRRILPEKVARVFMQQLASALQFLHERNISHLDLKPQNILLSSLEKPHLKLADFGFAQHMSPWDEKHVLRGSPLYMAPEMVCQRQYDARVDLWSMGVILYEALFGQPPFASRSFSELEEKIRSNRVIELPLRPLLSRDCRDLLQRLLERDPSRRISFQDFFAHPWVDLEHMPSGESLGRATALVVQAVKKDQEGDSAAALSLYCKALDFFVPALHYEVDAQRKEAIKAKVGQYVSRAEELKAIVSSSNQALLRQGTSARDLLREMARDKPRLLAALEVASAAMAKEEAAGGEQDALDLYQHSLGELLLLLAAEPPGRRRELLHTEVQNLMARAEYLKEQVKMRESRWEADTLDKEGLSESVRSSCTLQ

VRK2 = target: T40, VRK2 (Homo sapiens, UniProt Q86Y07)
T40 construct: purchased DiscoveRx KINOMEscan

YANK1 = target: T41, YANK1 (Homo sapiens, UniProt Q8WU08)
T41 construct: purchased DiscoveRx KINOMEscan

ZAP70 = target: T42, ZAP70 (Homo sapiens, UniProt P43403)
T42 construct: purchased DiscoveRx

Compound: CCN(C(=O)CO)[C@H]1CN(/C(=N\C#N)Nc2cccc(OC(F)F)c2)N=C1c1ccc(Cl)c(Cl)c1 [(S)-4]
- remaining binding at 1 µM [1]: 66%
- remaining binding at 1 µM [2]: 77%
- remaining binding at 1 µM (AKT2): 100%
- remaining binding at 1 µM (ALK(C1156Y)): 100%
- remaining binding at 1 µM (AMPK-alpha2): 85%
- remaining binding at 1 µM (CAMK1G): 98%
- remaining binding at 1 µM (CDK7): 98%
- remaining binding at 1 µM (CDKL2): 100%
- remaining binding at 1 µM (CSNK1A1L): 94%
- remaining binding at 1 µM (DRAK2): 100%
- remaining binding at 1 µM (EPHA6): 99%
- remaining binding at 1 µM (ERK8): 96%
- remaining binding at 1 µM (ERN1): 93%
- remaining binding at 1 µM (FLT3): 92%
- remaining binding at 1 µM (FLT3(D835H)): 93%
- remaining binding at 1 µM (FLT3(R834Q)): 100%
- remaining binding at 1 µM (GAK): 100%
- remaining binding at 1 µM (HIPK3): 100%
- remaining binding at 1 µM [3]: 85%
- remaining binding at 1 µM (LATS1): 90%
- remaining binding at 1 µM (LTK): 65%
- remaining binding at 1 µM (MST3): 100%
- remaining binding at 1 µM (NEK11): 77%
- remaining binding at 1 µM (OSR1): 78%
- remaining binding at 1 µM (PAK3): 100%
- remaining binding at 1 µM (PIP5K1A): 70%
- remaining binding at 1 µM (PKN1): 61%
- remaining binding at 1 µM (PLK2): 83%
- remaining binding at 1 µM (PRKX): 100%
- remaining binding at 1 µM (RET(V804M)): 100%
- remaining binding at 1 µM (RIPK4): 100%
- remaining binding at 1 µM [4]: 100%
- remaining binding at 1 µM [5]: 100%
- remaining binding at 1 µM (SGK): 100%
- remaining binding at 1 µM (STK16): 84%
- remaining binding at 1 µM (TAOK2): 91%
- remaining binding at 1 µM (TNK1): 66%
- remaining binding at 1 µM (TNNI3K): 73%
- remaining binding at 1 µM (ULK3): 74%
- remaining binding at 1 µM (VRK2): 93%
- remaining binding at 1 µM (YANK1): 77%
- remaining binding at 1 µM (ZAP70): 100%
